In ChEMBL document CHEMBL1201862, “PubChem BioAssay data set” (2004):
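Five concentrations, 48 hours, 96-well plates. GI50 is the concentration that inhibits growth by half.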 The source made the active and inactive calls. Cut-off read from the data, not from the text of the source: active = GI50 up to about 1.1 µM and inactive = higher.

Tests used:
Assay in all cases: growth of human tumour cells (NCI), 48 h
UACC-62 = tested on: UACC-62
Hs-578T = tested on: Hs-578T
PC-3 = tested on: PC-3
MDA-N = tested on: MDA-N
EKVX = tested on: EKVX
OVCAR-8 = tested on: OVCAR-8
NCI/ADR-RES = tested on: NCI/ADR-RES
U-251 = tested on: U-251
IGROV-1 = tested on: IGROV-1
OVCAR-4 = tested on: OVCAR-4
SK-MEL-2 = tested on: SK-MEL-2
SK-OV-3 = tested on: SK-OV-3
SF-295 = tested on: SF-295
SR = tested on: SR
A549 = tested on: A549
MOLT-4 = tested on: MOLT-4
RPMI-8226 = tested on: RPMI-8226
UACC-257 = tested on: UACC-257
MCF7 = tested on: MCF7
BT-549 = tested on: BT-549

| SMILES | GI50 (UACC-62) | GI50 (Hs-578T) | GI50 (PC-3) | GI50 (MDA-N) | GI50 (EKVX) | GI50 (OVCAR-8) | GI50 (NCI/ADR-RES) | GI50 (U-251) | GI50 (IGROV-1) | GI50 (OVCAR-4) | GI50 (SK-MEL-2) | GI50 (SK-OV-3) | GI50 (SF-295) | GI50 (SR) | GI50 (A549) | GI50 (MOLT-4) | GI50 (RPMI-8226) | GI50 (UACC-257) | GI50 (MCF7) | GI50 (BT-549) |
| --- | --- | --- | --- | --- | --- | --- | --- | --- | --- | --- | --- | --- | --- | --- | --- | --- | --- | --- | --- | --- |
| CCCCCC(C/C=N/N(C)C)C(O)(C(F)(F)F)C(F)(F)F (stereo not given) | 59.8 µM (inactive) | 35.6 µM (inactive) | 20.8 µM (inactive) | 38.4 µM (inactive) | 41.6 µM (inactive) | 41.5 µM (inactive) | > 100 µM (inactive) | 25.4 µM (inactive) | 19 µM (inactive) | 53.2 µM (inactive) | 25.9 µM (inactive) | 33.9 µM (inactive) | 42.5 µM (inactive) | 34.8 µM (inactive) | 37.2 µM (inactive) | 29.4 µM (inactive) | 11.3 µM (inactive) |  |  |  |
| CC(C)c1cccc(C(C)C)c1/N=C(/N)C#N | > 50.2 µM (inactive) |  |  |  | > 100 µM (inactive) | > 100 µM (inactive) |  | 34 µM (inactive) | > 100 µM (inactive) | > 100 µM (inactive) | > 90.6 µM (inactive) | > 100 µM (inactive) | > 100 µM (inactive) | 46.2 µM (inactive) | > 44.2 µM (inactive) | > 45.9 µM (inactive) | 34.4 µM (inactive) | > 46.6 µM (inactive) |  |  |
| N#Cc1nc(NC(=O)c2ccccc2)sc1N | > 10 µM (inactive) |  | > 10 µM (inactive) | > 10 µM (inactive) | > 10 µM (inactive) | > 10 µM (inactive) | > 9.48 µM (inactive) | > 10 µM (inactive) | > 10 µM (inactive) | > 6.07 µM (inactive) | > 10 µM (inactive) | > 10 µM (inactive) | > 10 µM (inactive) | > 6.01 µM (inactive) | > 10 µM (inactive) | 3.27 µM (inactive) | 9.82 µM (inactive) | > 10 µM (inactive) | > 2.22 µM (inactive) |  |
| COC1(OC)CCCc2c1no[n+]2[O-] | > 100 µM (inactive) | > 100 µM (inactive) | > 100 µM (inactive) | > 100 µM (inactive) | > 100 µM (inactive) | > 100 µM (inactive) | > 100 µM (inactive) | > 100 µM (inactive) | > 100 µM (inactive) | > 100 µM (inactive) | > 100 µM (inactive) | > 100 µM (inactive) | > 100 µM (inactive) | > 100 µM (inactive) | > 100 µM (inactive) | > 100 µM (inactive) | > 100 µM (inactive) | > 100 µM (inactive) | > 100 µM (inactive) |  |
| Cc1[nH]n(-c2ncc(C#N)c(=O)[nH]2)c(=O)c1CCO | > 100 µM (inactive) | > 100 µM (inactive) | > 100 µM (inactive) | > 100 µM (inactive) | > 100 µM (inactive) | > 100 µM (inactive) | > 100 µM (inactive) | > 100 µM (inactive) | > 100 µM (inactive) | > 100 µM (inactive) | > 100 µM (inactive) | > 100 µM (inactive) | > 100 µM (inactive) | > 100 µM (inactive) | > 100 µM (inactive) | 75.5 µM (inactive) | > 100 µM (inactive) | > 100 µM (inactive) | > 100 µM (inactive) |  |
| CC(=O)O[C@H]1C(N(C)C(=O)c2ccccc2)CC[C@]2(C)C3CC[C@@]4(C)C(CC(O)[C@@H]4C(C)N(C)C)[C@@H]3CCC12 (stereo not given in full) | > 100 µM (inactive) |  |  |  | > 100 µM (inactive) | > 100 µM (inactive) |  | > 100 µM (inactive) | > 100 µM (inactive) | > 100 µM (inactive) | > 100 µM (inactive) | > 100 µM (inactive) | > 100 µM (inactive) | 76.9 µM (inactive) | > 100 µM (inactive) | > 100 µM (inactive) | > 100 µM (inactive) | > 100 µM (inactive) |  |  |
| C[C@@H]1[C@@H]2[C@@H](C=C3C4CCC5Cc6nc7c(nc6C[C@@]5(C)C4C[C@H](O)[C@]32CO)CC2CCC3C4=C[C@H]5O[C@@]6(OC(C)(CO)C[C@@H]6O)[C@H](C)[C@@]5(O)[C@]4(C)[C@@H](O)CC3[C@]2(C)C7)O[C@]12CCC(C)(C)O2 (stereo not given in full) | 0.0802 µM (active) |  |  |  | 0.0766 µM (active) | 0.425 µM (active) |  | 0.0053 µM (active) | 0.387 µM (active) | 0.959 µM (active) | 0.0189 µM (active) | 0.0167 µM (active) | 0.000508 µM (active) | 0.00255 µM (active) | 0.0137 µM (active) | 0.00505 µM (active) | 0.00144 µM (active) | 0.0668 µM (active) | 0.00075 µM (active) |  |
| Cc1c(C#N)c(N)n(C2OC(CO)C(O)C(O)C2O)c(=S)c1C#N (stereo not given) | > 100 µM (inactive) | > 100 µM (inactive) | > 100 µM (inactive) | > 100 µM (inactive) | > 100 µM (inactive) | > 100 µM (inactive) |  | > 100 µM (inactive) | > 100 µM (inactive) | > 100 µM (inactive) |  | 6.47 µM (inactive) | > 100 µM (inactive) | > 100 µM (inactive) | > 100 µM (inactive) | > 100 µM (inactive) | > 100 µM (inactive) | > 100 µM (inactive) | > 100 µM (inactive) |  |
| O=C(Nc1cccc(C(F)(F)F)c1)C(=O)C(C(=O)c1ccc2ccccc2c1)C1OC(=O)c2ccccc21 (stereo not given) | 7.53 µM (inactive) | 7.14 µM (inactive) |  |  | 14.5 µM (inactive) | 6.35 µM (inactive) |  | 4.08 µM (inactive) | 18.2 µM (inactive) | 9.12 µM (inactive) | 8.57 µM (inactive) | 21.6 µM (inactive) | 5.19 µM (inactive) | 3.24 µM (inactive) | 10.7 µM (inactive) | 1.82 µM (inactive) | 3.68 µM (inactive) | 11.5 µM (inactive) | 7.16 µM (inactive) | 14.3 µM (inactive) |
| CCc1ccc2c(c1)CC1(C2)Cc2cc3c(cc2C1)C(=O)CC3 (stereo not given) | > 100 µM (inactive) | > 100 µM (inactive) | 16.3 µM (inactive) | 2.25 µM (inactive) | > 100 µM (inactive) | 21.9 µM (inactive) | 40.5 µM (inactive) | 18.8 µM (inactive) | 17.3 µM (inactive) | 15 µM (inactive) | 4.26 µM (inactive) | 25.1 µM (inactive) | 19.1 µM (inactive) |  | 24.2 µM (inactive) |  | 18.5 µM (inactive) | 8.39 µM (inactive) | 5.08 µM (inactive) |  |
| O=C(CCN1CCC(CCO)CC1)Nc1ccc2c(c1)C(=O)c1ccc(NC(=O)CCN3CCC(CCO)CC3)cc1C2=O | 9.04 µM (inactive) |  |  |  | 32.5 µM (inactive) | 9.89 µM (inactive) |  | 9.1 µM (inactive) | 24.7 µM (inactive) | 12.5 µM (inactive) | 3.76 µM (inactive) | 7.96 µM (inactive) | > 100 µM (inactive) | 7.69 µM (inactive) | 37.7 µM (inactive) | 4.13 µM (inactive) | 25.9 µM (inactive) | 19.5 µM (inactive) |  |  |
| O=C1CC(c2cccc(Cl)c2)n2cccc21 (stereo not given) | > 100 µM (inactive) | 31.8 µM (inactive) | 49.5 µM (inactive) |  |  | > 100 µM (inactive) | > 100 µM (inactive) | > 100 µM (inactive) |  | > 100 µM (inactive) | 37.8 µM (inactive) | > 100 µM (inactive) | > 100 µM (inactive) | 90.2 µM (inactive) | > 100 µM (inactive) | 70 µM (inactive) | > 100 µM (inactive) | > 100 µM (inactive) | > 100 µM (inactive) |  |
| COc1cc2c(c(OC)c1O)-c1ccc(SC)c(=O)cc1C(NC(C)=O)CC2 (stereo not given) | < 0.0119 µM (active) |  |  |  | 39.7 µM (inactive) | 0.0307 µM (active) |  | < 0.0146 µM (active) | 0.0593 µM (active) | > 40.6 µM (inactive) | < 0.01 µM (active) | 0.215 µM (active) | 0.0184 µM (active) | 0.0112 µM (active) | 0.04 µM (active) | < 0.0122 µM (active) | < 0.0121 µM (active) | 2.24 µM (inactive) |  |  |
| CNC(=O)OCc1nc(SC2CCCCO2)n(C)c1COC(=O)NC (stereo not given) | > 100 µM (inactive) |  |  |  | > 100 µM (inactive) | > 100 µM (inactive) | > 100 µM (inactive) | > 100 µM (inactive) | > 100 µM (inactive) | > 100 µM (inactive) | > 100 µM (inactive) | > 100 µM (inactive) | > 100 µM (inactive) | > 100 µM (inactive) | > 100 µM (inactive) | > 100 µM (inactive) | > 100 µM (inactive) | > 100 µM (inactive) | > 100 µM (inactive) |  |
| CCOC(=O)CCc1c(C(=O)OCC)[nH]c(/C=C2\NC(=O)C(C)=C2CC)c1C | 19.2 µM (inactive) |  | 26.4 µM (inactive) |  | 22.2 µM (inactive) | 5.83 µM (inactive) | 12.9 µM (inactive) | 15.3 µM (inactive) | 4.59 µM (inactive) | 20.4 µM (inactive) | 18.1 µM (inactive) | 22 µM (inactive) | 17.8 µM (inactive) |  | 40.1 µM (inactive) | > 100 µM (inactive) | > 100 µM (inactive) |  | 41 µM (inactive) |  |
| CN1C(=O)N(C)C2(O)c3ccccc3C(=O)C12O (stereo not given) | > 100 µM (inactive) |  |  |  | > 100 µM (inactive) | > 100 µM (inactive) |  | > 100 µM (inactive) | > 100 µM (inactive) | > 100 µM (inactive) | > 100 µM (inactive) | > 100 µM (inactive) | > 100 µM (inactive) | > 100 µM (inactive) | > 100 µM (inactive) | > 100 µM (inactive) | > 100 µM (inactive) | > 100 µM (inactive) |  |  |
| Cc1cc2c(s1)C(=O)c1sccc1C2=O | 0.24 µM (active) | 0.417 µM (active) | 0.942 µM (active) | 0.171 µM (active) | 1.84 µM (inactive) | 0.424 µM (active) | 0.459 µM (active) | 1.29 µM (inactive) | 1.66 µM (inactive) | 0.561 µM (active) | 0.385 µM (active) | 2.06 µM (inactive) | 0.344 µM (active) | 3.01 µM (inactive) | 0.625 µM (active) | 2.3 µM (inactive) | 1.88 µM (inactive) | 0.194 µM (active) | 1.26 µM (inactive) |  |
